Assay results as given in patent US9578878B2, “Antimicrobial efficacy of an oregano oil and caprylic acid blend” (Kemin Industries, Inc., priority 2014, dated 2017).

Tests used:
A. brasiliensis = assay: Poison agar assay; assay type: cell-based, Aspergillus brasiliensis
Method: (§1) Microorganisms Escherichia coli (ATCC #8739), Streptococcus sanguinis (ATCC #BAA-1455), Salmonella enteria subsp. enterica (ex Kauffmann and Edwards) Le Minor and Popoff serovar Typhimurium (ATCC #14028), Staphylococcus aureus (ATCC #6538), Pseudomonas aeruginosa (ATCC #9027), and Candida albicans (ATCC #10231) were obtained from a −80° C. internal stock culture. Aspergillus brasiliensis (ATCC #16404) was obtained from an internal stock solution culture stored at 4° C. E. coli, S. enterica S. aureus, and P. aeruginosa were grown in tryptic soy broth (TSB) and incubated at 37° C. for 24 h. S. sanguinis was grown in brain heart infusion broth (BHI). A. brasiliensis was plated on Sabourand dextrose agar (SDA) and incubated at 25° C. for 5-7 days. C. albicans was grown in Sabourand dextrose broth (SDB) and incubated at 25° C. for 48 h.
(§2) A. brasiliensis was harvested by adding 18 mL sterile saline to the plate and agitating the mold from the agar with a sterile inoculating loop. The inoculum was collected upon agitation. All suspended microbes were diluted with the same type of broth media used to grow each organism until an inoculum in the range of 10^6 CFU/mL was achieved. The inoculum concentration was determined by plate count method. Each strain was identified by plating on the appropriate growth media, E. coli, S. aureus, and P. aeruginosa on tryptic soy agar (Bacto, BD Sciences, Manassas, Va.) and C. albicans and A. brasiliensis on Sabrouand dextrose agar, to ensure there was no contamination of the inoculum.
A poison agar assay was completed for A. brasiliensis. Potato dextrose agar was used as the plated medium. Inocula at 10^5 cfu/ml were prepared and counted using a Petroff-Hausser counting chamber. Each treatment was added directly into the control without DMSO and Tween 80 as used in the previous experiments. The diameter of no growth around a 6 mm blank disk after incubation at 25° C. for 72 hrs was compared to the untreated control.

[1] = test system: Escherichia coli (ATCC #8739); assay: Microtiter assay, MIC to inhibit 90% growth; assay type: cell-based; settings: 24 hours, n = 3
Method: (§3) For assays to find minimum inhibitory concentrations, all treatments were diluted in 10% DMSO and 0.5% Tween 80 to stabilize the samples.
as §1, §2
(§4) Microtiter Assay. A microtiter assay was completed E. coli, S. aureus, P. aeruginosa, S. enteria, S. sanguinis, and C. albicans. Briefly, 10^6 cfu/ml preparations of each organism were made and enumerated using a Petroff-Hausser counting chamber. A 100 μl aliquot of the inoculums was dispensed into microtiter plate wells and a 100 μl aliquot of treatment was dispensed into the same wells. Two separate set of wells were prepared as positive and negative controls, with the positive wells containing 100 μl test organism in growth media and 100 μl sterile phosphate buffer and with the negative control wells containing 100 μl of the same growth media and 100 μl sterile phosphate buffer. The plates were incubated overnight at the appropriate temperature for each organism. A plate reader was used to track the kinetic growth curve using 405 nm and […]. The last time point at 24 hours was averaged and used to determine MIC90. Each treatment was conducted in triplicate wells.

[2] = test system: Pseudomonas aeruginosa (ATCC #9027); assay: Microtiter assay, MIC to inhibit 90% growth; assay type: cell-based; settings: 24 hours, n = 3
Method: as §3, §1, §2, §4

[3] = test system: Streptococcus sanguinis (ATCC #BAA-1455); assay: Microtiter assay, MIC to inhibit 90% growth; assay type: cell-based; settings: 24 hours, n = 3
Method: as §3, §1, §2, §4

[4] = test system: Candida albicans (ATCC #10231); assay: Microtiter assay, MIC to inhibit 90% growth; assay type: cell-based; settings: 24 hours, n = 3
Method: as §3, §1, §2, §4

Salmonella enterica = assay: Microtiter assay, MIC to inhibit 90% growth; assay type: cell-based; settings: 24 hours, n = 3
Method: as §3, §1, §2, §4

[5] = test system: Staphylococcus aureus (ATCC #6538); assay: Microtiter assay, MIC to inhibit 90% growth; assay type: cell-based; settings: 24 hours, n = 3
Method: as §3, §1, §2, §4

For `Cc1ccc(C(C)C)cc1O` [Carvacrol, carvacrol], the “% Inhibition from Control” value (A. brasiliensis; 0.005% in agar) was 15.10%, the “Diameter of Growth” value (A. brasiliensis; 0.005% in agar) was 6.50 mm and the “% Inhibition from Control” value (A. brasiliensis; 0.010% in agar) was 64.70%. For the same compound, the “Diameter of Growth” value (A. brasiliensis; 0.010% in agar) was 2.70 mm, the “% Inhibition from Control” value (A. brasiliensis; 0.030% in agar) was 100.00% and the “Diameter of Growth” value (A. brasiliensis; 0.030% in agar) was 0.00 mm. For the same compound, the “MIC90 in the poison agar assay” value (A. brasiliensis; potato dextrose agar, 25° C., 72 hrs) was 0.03%, the “Minimum Inhibitory Concentration (MIC) to inhibit 90% growth, E. coli” value [1] was 0.10% and the “Minimum Inhibitory Concentration (MIC) to inhibit 90% growth, P. aeruginosa” value [2] was greater than 0.1%. The “Minimum Inhibitory Concentration (MIC) to inhibit 90% growth, S. sanguinis” value [3] was 0.05%, the “Minimum Inhibitory Concentration (MIC) to inhibit 90% growth, C. albicans” value [4] was 0.10% and the “Minimum Inhibitory Concentration (MIC) to inhibit 90% growth, S. enterica” value (Salmonella enterica) was 0.05%. The “Minimum Inhibitory Concentration (MIC) to inhibit 90% growth, S. aureus” value [5] was 0.05%.
